In patent US20140220000A1, “MHC ENGAGEMENT AND CLIP MODULATION FOR THE TREATMENT OF DISEASE” (Scott & White Healthcare, priority 2011, published 2014):

Assays:
MCF7 ADR cells = assay: Viability counts of MCF7 ADR cells after B-estradiol treatment (Example 5); type: cell-based, human; details: 10 nM B-estradiol, about 19 hours after treatment
Procedure: (§1) MCF7 (ATCC (cat# HTB-22)) and MCF7-ADR were grown in 10% FBS RPMI (Gibco RPMI 1640 media cat #21870076) supplemented with Fetal Bovine Serum, L-Glutamine, […], Hepes Buffer, Sodium Pyruvate, and Gentamicin). 1.07*10^6MCF7 cells were plated per well in 2 wells. […] ADR cells were plated per well in 2 wells. The cells were treated with B-estradiol from Sigma (Cat# E2758-250 mg, Lot#110M0138V). In order to prepare a 10 nM final concentration 27.238 mg of B-estradiol was weighed under the hood with a sterile weigh boat and spatula and dissolved in 1 mL of DMSO to make a 0.1M stock, which was then diluted twice: • 1:1000 dilution (1 ul of the 0.1M stock to 999 ul PBS) • 1:100 dilution (10 ul of the 1:000 dilution to 990 ul PBS) 20 ul of the 1:100 diluted solution was added to a final volume of 2 mL per treatment well. The MCF7 and MCF7 ADR were harvested about 19 hours after treatment. The cells were counted and viability is shown below.

MCF7 cells = assay: Viability counts of MCF7 cells after B-estradiol treatment (Example 5); type: cell-based, human; details: 10 nM B-estradiol, about 19 hours after treatment
Procedure: as §1

H69 cells = assay: Hemacytometer viability counts of H69 cells after CpG, MKR.4 and anti-class II treatment (Example 3); type: cell-based, human; details: 24 hours after anti-class II
Procedure: Based on cell counts 500,000 H69 cells per well were set up in a 6 well plate-4.0*10^6/2.95*10^6=1.36 mL. The 1.36 mL was added to a new 15 mL conical tube and centrifuged for 5 minutes at 1000 rpm. The pellet was resuspended in 8 mL of H69 media and 1 mL of cell suspension was added to each well. 2 mL of H69 media was added to each well to bring the total volume/well up to 3 mL and the plates were placed in an incubator.
(§2) CpG was administered to activate the cells and induce CLIP expression. 15 uL of 1 mg/mL CpG was added into each CpG treated well. MKR.4 was added to select wells 24 hours after cell activation. The cells were incubated with 3 uL of 5 mg/mL stock MKR.4 in DMSO for 2 hours. Then fresh media with or without Anti MHC Class II was added (5 ul/well of stock at 1 mg/mL). 24 hours after Anti MHC Class II was added to the wells viability counts were performed.

C57BL/6 splenocytes = assay: Viability counts of C57BL/6 splenocytes after CpG, MKR.4 and Anti MHC Class II treatment (Example 2); type: cell-based, mouse; details: CpG 5 ug/mL, MKR.4 5 ug/mL, Anti MHC Class II 5 ug/mL, 24 hours after antibody
Procedure: C57BL/6 were Prepared as Follows: • A spleen from a C57BL/6 mouse was placed in a cell strainer in a petri dish with 6 mL of PBS • The spleen was mashed to produce a cell suspension • The PBS splenocyte cell suspension was transferred into a labeled 15 mL conical tube and centrifuged for 5 minutes at 1000 rpm • The pellet was resuspended in 1 mL of PBS • Geys was prepared to lyse the red blood cells • 7 mL of DI H20; • 0.5 mL of Geys B • 0.5 mL of Geys C • weighed out […] of NH4Cl • Mixed the […] of NH4Cl with 2 mL of Geys A • Transferred the dissolved solution to a 15 mL conical tube with the H20, Geys B, and Geys C • 3 mL of the Geys solution was added to the 1 mL of PBS cell suspension, mixed well and placed on ice for 1 minute (frequently inverted solution in tube on ice during the 1 minute) • The mixture was centrifuged for 5 minutes at 1000 rpm, washed with 5 mL of PBS, centrifuged for 5 minutes at 1000 rpm and resuspended in 10 mL of PBS • A hemacytometer count was performed: 99.0*10^6 cells total (9.9*10^6 cells/mL) plate 4*10^6 cells per well*8 wells=32 million; 32*10^6/9.9*10^6=3.23 mL of this suspension needed to obtain 32*10^6 cells • Centrifuged 3.23 mL of the suspension for 5 minutes at 1000 rpm and resuspended the pellet in 8 mL of 5% FBS RPMI • 1 mL of suspension was added to each well (12-well plate) • Added another 2 mL of 5% FBS RPMI to each well to bring the final volume up to 3 mL
(§3) 8 wells were set up for the experiment for each cell type (CRL-5822 and C57BL/6) with no treatment, with CpG, MKR.4 peptide, with MKR.4 peptide+CpG and with or without addition of purified Anti Class-II (HLA-DR,DP,DQ) treatment in the amounts listed below.
CpG: (x) (1 mg/mL stock)=(5 ug/mL) (3 mL) x=15 ul
MKR.4: (x) (5 mg/mL stock)=(5 ug/mL) (3 mL) x=3 ul
Anti MHC Class II: Treat at 5 ug/mL; Stock is at 1 mg/mL; (x) (1 mg/mL)=(5 ug/mL) (3 mL); x=15 ul/well
(§4) CpG was administered to activate the cells and induce CLIP expression. MKR.4 was added to select wells 24 hours after cell activation. The cells were incubated with MKR.4 for 2 hours. Then fresh media with or without Anti MHC Class II was added. 24 hours after Anti MHC Class II was added to the wells viability counts were performed.

WITT cells = assay: Hemacytometer viability counts of WITT cells after CpG, MKR.4 and anti-class II treatment (Example 3); type: cell-based, human; details: 24 hours after anti-class II
Procedure: 0.59*10^6 cells/mL*5 mL=[…] of WITT cells total were used. The cells were centrifuged at 1000 rpm for 5 minutes and the pellet was resuspended in 9 mL of WITT media. 1 mL of this cell suspension was added to each of […] and a culture flask. Another 2 mL of WITT media was added to each well in the 12 well plate to bring the total volume up to 3 mL. Another 9 mL was added to the T-25 culture flask to bring that total volume up to 10 mL. The plate and flask were placed in the incubator to allow adherence overnight.
as §2

CRL-5822 cells [1] = assay: Viability counts of CRL-5822 cells after CpG, MKR.4 and Anti MHC Class II treatment (Example 2); type: cell-based; details: CpG 1 ug/mL, MKR.4 2.5 ug/mL, Anti MHC Class II 5 ug/mL, 24 hours after antibody
Procedure: CRL-5822 were Prepared as Follows: • Removed the media from a flask of CRL-5822 using a sterile glass pipet and vacuum • Added 1.5 mL of accutase to the flask and placed in incubator for 20 minutes • Washed with 3 mL of PBS • Transferred all to a sterile 15 mL conical tube • Centrifuged for 5′ @ 1000 rpm • Removed supernatant with sterile glass pipet and vacuum • Resuspended in 3 mL of PBS • Performed a hemacytometer count indicating: 1.14*10^6 cells total of CRL-5822 cells • 1.14*10^6/8 wells+2 wells for culture maintenance=10 wells • 1.14*10^6/10 wells=[…] cells per well • Centrifuged the 3 mL of cell suspension for 5′ at 1000 rpm • Resuspended pellet in 10 mL of 10% FBS RPMI • 1 mL of this was added to 2 wells in a 12-well plate added 1 mL of fresh 10% FBS RPMI to each well to bring the total volume up to 2 mL.
as §3
CRL-5822 • CpG:(x) (1 mg/mL stock)=(1 ug/mL) (2 mL)x=2 ul • MKR.4: (x) (5 mg/mL stock)=(2.5 ug/mL) (2 mL) x=1 ul • Anti MHC Class II: Treat at 5 ug/mL; Stock is at 1 mg/mL; (x) (1 mg/mL)=(5 ug/mL) (2 mL); x=10 μl/well
as §4

B cells from C57B/6 mice = assay: Cell death of B cells isolated from C57B/6 mice (Example 6, FIG. 6A); type: cell-based, mouse; details: C57B/6 B cells stimulated with CpG 48 hours, MKR.4 5 μg/mL 1 hour, anti-MHCII 2.5 μg/mL, 24 hours
Procedure: (§5) B cells were isolated from the spleens 12 week old male C57B/6 or CLIP−/− (Invariant Chain deficient) mice (Jackson Labs) using the Miltenyi Biotech B cell isolation kit according to the manufacturer's directions. Cells were incubated with or without CpG-ODN (1 mg/mL SEQ ID NO 9: 5′-[…]-3′, purchased from Invivogen) for 48 hours followed by treatment with 5 μg/mL MKR.4 (5 mg/mL, SEQ ID NO 8: ANS GFR IMA VLA SGG QY). Cells were incubated with MKR.4 for 1 hour and then washed followed by treatment with 2.5 μg/mL anti-MHCII (IA/IE, BD Bioscience). 24 hours after anti-MHCII treatment cells were analyzed for cell death using Acridine Organge/propidium iodide staining measured on the Cellometer (Nexcelom), propidium iodide and foreword Vs. side scatter staining measured on a BD FACS Canto II flow cytometer (BD Bioscience). Data was analyzed using FlowJo software (TreeStar).

CRL-5822 cells [2] = assay: Viability counts of CRL-5822 cells after LPS, MKR.4 and Anti MHC Class II treatment (Example 1); type: cell-based; details: LPS 1 ug/mL, MKR.4 2.5 ug/mL, Anti MHC Class II 5 ug/mL, 24 hours after antibody
Procedure: The media was removed from a flask of CRL-5822 using a sterile glass pipet and vacuum and 1.5 mL of accutase was added to the flask and placed in incubator for 20 minutes. The cells were washed with 3 mL of PBS and transferred to a sterile 15 mL conical tube and centrifuged for 5 minutes @ 1000 rpm. The supernatant was removed with sterile glass pipet and vacuum and the pellet resuspended in 5 mL of PBS. A cell count was performed using the TC-10 automated counter and 10 ul of cell suspension+10 ul of trypan blue was loaded into disposable counting slide and put in the TC-10. The following count was made: Live: 3.54*10^4 cells/mL*5 mL=177,000 cells total & 177,000/9 wells (8 wells in experiment+1 to maintain culture)=19,666 cells/well (flask).
The 5 mL of cell suspension was centrifuged for 5′ at 1000 rpm, the pellet was resuspended in 9 mL of 10% FBS RPMI. 1 mL of the cell suspension was added to a T-25 flask that had 4 mL of media in it and placed in the incubator. After culture 1 mL of the cell suspension was added to each well (8 wells in a labeled 24 well plate). A fresh vial of MKR.4 was resuspended in sterile DMSO. 7 mg of peptide was used to make a 5 mg/mL stock (7 mg/mL=5 mg/mL=1.4 mL of DMSO). The peptide was added into 1.4 mL of DMSO, under the hood to maintain sterility. Once all of the peptide was dissolved, 200 ul aliquots were made. […]

[3] = system: B cells from CLIP−/− (Invariant Chain deficient) mice; assay: Cell death of B cells isolated from CLIP-/- mice (Example 6, FIG. 6B); type: cell-based, mouse; details: MKR.4 5 μg/mL, anti-MHCII 2.5 μg/mL, 24 hours
Procedure: as §5

Compound | Dead (MCF7 ADR cells) | Live (MCF7 ADR cells) | Dead (MCF7 cells) | Live (MCF7 cells) | Dead (H69 cells) | Live (H69 cells) | Total Dead (C57BL/6 splenocytes) | Total Live (C57BL/6 splenocytes) | Dead (WITT cells) | Live (WITT cells) | Total Dead (CRL-5822 cells [1]) | Total Live (CRL-5822 cells [1]) | percent change in cell death (B cells from C57B/6 mice) | Total Dead (CRL-5822 cells [2]) | Total Live (CRL-5822 cells [2]) | percent change in cell death [3]
C[C@]12CC[C@@H]3c4ccc(O)cc4CC[C@H]3[C@@H]1CC[C@@H]2O [B-Estradiol, B-estradiol] | 0.07*10^6 | 0.47*10^6 | 0.11*10^6 | 0.50*10^6 |  |  |  |  |  |  |  |  |  |  |  | 
5′-tcgtcgttttgtcgttttgtcgtt-3′ [CpG] |  |  |  |  | Dead: 0.40*10^6 | Live: 1.65*10^6 | Total Dead: 0.08 *10^6 | Total Live: 1.25 * 10^6 | 0.13*10^6 | 0.94*10^6 | Total Dead: 0.07 *10^6 | Total Live: 0.35 * 10^6 |  |  |  | 
ANS GFR IMA VLA SGG QY (ANSGFRIMAVLASGGQY) [MKR.4] |  |  |  |  | Dead: 0.28*10^6 | Live: 1.46*10^6 | Total Dead: 0.10 *10^6 | Total Live: 0.44 * 10^6 | 0.038*10^6 | 0.93*10^6 | Total Dead: 0.08 *10^6 | Total Live: 0.24 * 10^6 | restores the increase in cell death | Total Dead: 0.07 *10^6 | Total Live: 0.32 * 10^6 | no effect on the cell death caused by the MHC class II antibody
